Source: US20170071944A1, “MODULATORS OF TOLL-LIKE RECEPTORS FOR THE TREATMENT OF HIV” (Gilead Sciences, Inc., priority 2015, published 2017)

System: PBMC cultures from HIV-1 infected subjects on cART
Test: Induced cytokines and chemokines in PBMC cultures from HIV-1 infected subjects on cART (multiplexed Luminex)
Format: cell-based, human
Conditions: day 2, geometric mean, 4 subjects
Procedure: To further characterize the immune modulatory effect of TLR8 agonists in cells from HIV-infected subjects, the production of secreted cytokines and chemokines was measured in PBMCs from 4 HIV-infected subjects on suppressive cART (anonymized participant IDs 180-183). PBMCs were purified, as described in Example 121, and immediately added to tissue culture plates pre-equilibrated at 37° C. with media containing DMSO (vehicle control) or with the TLR8 modulating compound Example 15 at concentrations ranging from 1.0 nM to 10.0 μM. On day 2 after treatment, cell-free culture supernatants were collected and frozen at −80 C for subsequent analysis. Frozen supernatants were thawed at room temperature, and the indicated cytokines and chemokines were quantified with a custom multiplexed xMAP Luminex® assay following the manufacturer's instructions (Thermo Fisher Scientific Inc., Grand Island, N.Y., custom-designed kit).
Data are expressed as geometric mean cytokine values (pg/ml) obtained from 4 subjects' PBMCs. Geometric mean fold-activation from three independent incubation samples for each condition. Fold (fold-activation) is calculated as a ratio of the concentration of cytokine detected in cell culture supernatants from agonist treated samples relative to DMSO treated samples

`CCCC[C@H](CO)Nc1nc(N)nc2cccnc12` [Example 15] was tested, and the “I-TAC Fold vs DMSO” value (Ex 15 1000 nM) was 2 fold, the IFN-α (Ex 15 1000 nM) was 6 pg/mL and the “IFN-α Fold vs DMSO” value (Ex 15 1000 nM) was 3 fold. The IFN-γ (Ex 15 1000 nM) was 5693 pg/mL, the “IFN-γ Fold vs DMSO” value (Ex 15 1000 nM) was 228 fold and the IL-6 pg/ml (Ex 15 1000 nM) was 22600 pg/mL. It also gave an IL-8 pg/ml (Ex 15 1000 nM) of 1565 pg/mL, an IL-10 pg/ml (Ex 15 1000 nM) of 3719 pg/mL and an IL-18 pg/ml (Ex 15 1000 nM) of 191 pg/mL. For the same compound, the IL-23 pg/ml (Ex 15 1000 nM) was 465 pg/mL, the IL-1RA (Ex 15 1000 nM) was 164731 pg/mL and the “IL-1RA Fold vs DMSO” value (Ex 15 1000 nM) was 46 fold. For the same compound, the IL-1β (Ex 15 1000 nM) was 4735 pg/mL, the “IL-1β Fold vs DMSO” value (Ex 15 1000 nM) was 1578 fold and the “IL-6 Fold vs DMSO” value (Ex 15 1000 nM) was 290 fold. The “IL-8 Fold vs DMSO” value (Ex 15 1000 nM) was 5 fold, the “IL-10 Fold vs DMSO” value (Ex 15 1000 nM) was 219 fold and the IL-12p70 pg/ml (Ex 15 1000 nM) was 524 pg/mL. For the same compound, the “IL-12p70 Fold vs DMSO” value (Ex 15 1000 nM) was 175 fold, the “IL-18 Fold vs DMSO” value (Ex 15 1000 nM) was 11 fold and the “IL-23 Fold vs DMSO” value (Ex 15 1000 nM) was 8 fold. The IP-10 pg/ml (Ex 15 1000 nM) was 741 pg/mL, the “IP-10 Fold vs DMSO” value (Ex 15 1000 nM) was 3 fold and the MCP-1 pg/ml (Ex 15 1000 nM) was 1464 pg/mL. The “MCP-1 Fold vs DMSO” value (Ex 15 1000 nM) was 22 fold, the MIP-1α (Ex 15 1000 nM) was 18689 pg/mL and the “MIP-1α Fold vs DMSO” value (Ex 15 1000 nM) was 374 fold. For the same compound, the MIP-1β (Ex 15 1000 nM) was 415739 pg/mL, the “MIP-1β Fold vs DMSO” value (Ex 15 1000 nM) was 340 fold and the MIP-3α (Ex 15 1000 nM) was 1085 pg/mL. The “MIP-3α Fold vs DMSO” value (Ex 15 1000 nM) was 42 fold, the MMP-1 pg/ml (Ex 15 1000 nM) was 317 pg/mL and the “MMP-1 Fold vs DMSO” value (Ex 15 1000 nM) was 3 fold. The TNF-α (Ex 15 1000 nM) was 34880 pg/mL, the “TNF-α Fold vs DMSO” value (Ex 15 1000 nM) was 1661 fold and the GRO-α (Ex 15 3000 nM) was 418 pg/mL. The “GRO-α Fold vs DMSO” value (Ex 15 3000 nM) was 18 fold, the “Granzyme B” value (Ex 15 3000 nM) was 857 pg/mL and the “Granzyme B Fold vs DMSO” value (Ex 15 3000 nM) was 4 fold. For the same compound, the I-TAC (Ex 15 3000 nM) was 98 pg/mL, the “I-TAC Fold vs DMSO” value (Ex 15 3000 nM) was 2 fold and the IFN-α (Ex 15 3000 nM) was 6 pg/mL. For the same compound, the “IFN-α Fold vs DMSO” value (Ex 15 3000 nM) was 3 fold, the IFN-γ (Ex 15 3000 nM) was 3586 pg/mL and the “IFN-γ Fold vs DMSO” value (Ex 15 3000 nM) was 143 fold. It also gave an IL-6 pg/ml (Ex 15 3000 nM) of 15198 pg/mL, an IL-8 pg/ml (Ex 15 3000 nM) of 1139 pg/mL and an IL-10 pg/ml (Ex 15 3000 nM) of 4747 pg/mL. For the same compound, the IL-18 pg/ml (Ex 15 3000 nM) was 308 pg/mL, the IL-23 pg/ml (Ex 15 3000 nM) was 1163 pg/mL and the IL-1RA (Ex 15 3000 nM) was 88340 pg/mL. For the same compound, the “IL-1RA Fold vs DMSO” value (Ex 15 3000 nM) was 25 fold, the IL-1β (Ex 15 3000 nM) was 5302 pg/mL and the “IL-1β Fold vs DMSO” value (Ex 15 3000 nM) was 1767 fold. The “IL-6 Fold vs DMSO” value (Ex 15 3000 nM) was 195 fold, the “IL-8 Fold vs DMSO” value (Ex 15 3000 nM) was 4 fold and the “IL-10 Fold vs DMSO” value (Ex 15 3000 nM) was 279 fold. For the same compound, the IL-12p70 pg/ml (Ex 15 3000 nM) was 381 pg/mL and the “IL-12p70 Fold vs DMSO” value (Ex 15 3000 nM) was 127 fold.
